# Source: US9198894B2, “Uses of 15-benzylidene-14-deoxy-11,12-didehydroandrographolide derivatives in the preparation of antineoplastic drugs” (Zhengzhou University, priority 2010, dated 2015)
# Where “and” joins values, the source holds several entries; their conditions need not be identical. Equal entries are not always repeated. Marks after values point to notes of the source that are not given here.
# Key:
# Murine hepatoma H22 = assay: Anti-tumor and anti-angiogenesis effects on H22 tumor-bearing mice; assay type: in vivo, mouse; conditions: H22 mice, 20.00 mg/kg ig once a day 7 d
# Description: 1) Animals: Kunming mice of clean grade, half male and half female, body weight 20±2 g, were purchased from the experimental animal center of Henan Province, China. Qualified Certificate number: SCXK (Yu) 2005-0001.
# 2) Cells: Murine hepatoma H22 cells were presently obtained from Henan Academy of Medical and Pharmaceutical Sciences (Zhengzhou, China).
# Cyclophosphamide (Cyc) was produced by Tianjin Jingshi Pharmaceutical Co., Ltd., China (approval number of medicine: H12021006). Gelatin and carmine red were supplied by Sigma Chemical (St. Louis, Mo., U.S.A). All other chemicals and reagents were of the highest commercial grade available. All drugs were prepared with normal saline emulsified with Tween-80 (0.1% v/v) and dispersed in carboxymethylcellulose (0.5% v/v). 10% (W/V) carmine solution was prepared with salt solution containing 5% (W/V) gelatin which should be used immediately after preparation. The rest of medicines and reagents and the methods for preparation were the same with that of EXAMPLE 1.
# 4) Method: The H22 cells after in vivo passage for 7 d were diluted with physiological saline to adjust to a concentration of 1×10^7/mL, injected to the armpit of right forelimb of mice subcutaneously (0.2 ml/mouse), then mice were divided into 10 groups (n=12; 6 male and 6 female per group) randomly. 24 h later each group of mice was administrated intragastrically (ig; 0.2 ml/10 g) once a day continuously for 7 d with vehicle (tumor control group and control group), Cyc (standard control), or compounds at the tested doses. After the last drug administration and a following fasting of 8 h, each mouse was anesthetized with 1% pentobarbital in normal saline solution (80 mg/kg; ip). Mice of control group were injected with 5% gelatin in normal saline solution (40) via the tail vein (1 ml/mouse); whereas mice of other groups were injected replaced by 10% carmine red and 5% gelatin in normal saline solution (40). Mice were killed, then freezed in a refrigerator at −20 for 2 h to solidify. Tumors were segregated, weighed and homogenized with 3 M NaOH solution (10 ml/g tumor). The homogenate supernatant was prepared by being centrifuged for 20 min at 14000 rpm, and the absorbance at 490 nm was assayed using a PowerWaveX Microplate Scanning Spectrophotometer (Bio-tek Instruments, Inc). The carmine red content was calculated based on the standard curve. The vascular index (VI) expressed as milligram of carmine red per gram of tumor tissue. The inhibition ratio (IR) of tumor growth was calculated using the formula: IR (%)=[(Wc−Wt)/Wc]×100%, where Wc is the average tumor weight of the control group, and Wt is that of the drug treatment group. Data were expressed as mean±SD and statistical analysis was performed by SPSS Statistics 17.0 using a one-way analysis of variance (ANOVA) followed by unpaired t-test. A value of P<0.05 was considered statistically significant.
# S180 murine sarcoma = assay: Growth, invasion and metastasis of S180 sarcoma in tumor-bearing mice; assay type: in vivo, mouse
# Procedure: 1) Animals: Be the same with that of EXAMPLE 4.
# 2) Cells: The S180 murine sarcoma cells were obtained from Henan Academy of Medical and Pharmaceutical Sciences (Zhengzhou, China).
# 4) Method: Mice were randomly divided into 10 groups (n=12). The S180 cells after in vivo passage for 7 d were diluted with physiological saline to adjust to a concentration of 1×10^7/mL. The inoculation of tumor cells was conducted in two batches, those of tumor control group I and groups treated with compounds 1 or 3 were in batch 1, those of tumor control group II, Cyc group and the compound 2 groups were in batch 2. The mice were injected with S180 cells (0.2 ml/mouse) into the armpit of right forelimb subcutaneously, and 24 h later each group of mice was administrated intragastrically (ig; 0.2 ml/10 g) once a day continuously for 9 d with vehicle (tumor control group), Cyc (standard control), or compounds at the tested doses. On day 10, kill the mice, observe and record the degree of invasion and metastasis of tumor tissues, then the tumor tissues were segregated and weighed. The inhibition ratio (IR) of tumor growth was calculated by the following formula: IR (%)=[(Wc−Wt)/Wc]×100%, where Wc is the average tumor weight of the control group, and Wt is that of the treatment group. Data were expressed as mean±SD and statistical analysis was performed by SPSS Statistics 17.0 using a one-way analysis of variance (ANOVA) followed by unpaired t-test. A value of P<0.05 was considered statistically significant.
# [1] = tested on: B16-F10 mouse melanoma cells; assay type: in vivo; conditions: B16-F10, C57BL/6 mice, 30.00 mg/kg ig 24 d
# Procedure: 1) Animals: A total of 20 C57BL/6 male mice of clean grade [Number of Animal License: SCXK (Xiang) 2009-0004], weighing 18-22 g, were purchased from Hunan Slca Jingda Experimental Animal Center Company, Ltd., China.
# 2) Cells: B16-F10 mouse melanoma cells were purchased from Nanjing KeyGen Biotech. Co. Ltd., China.
# (§1) 4) Method: B16-F10 cells in logarithmic growth phase were trypsinized, then resuspended in RPMI1640 medium containing 10% fetal bovine serum and centrifuged at 1000 rpm for 5 min. The supernatant was removed and sterile PBS was added to prepare single-cell suspension (10^7/mL). The murine melanoma lung metastasis model was established in mice via caudal vein injection of B16-F10 cells (0.2 ml/mouse). Mice were randomly divided into 4 groups (n=5) according to body weight, and 24 h later they were administrated intragastrically (ig; 0.2 ml/10 g) once a day continuously for 24 d with vehicle (tumor control group), Cyc (30 mg/kg), compound 3 at 0.85 mmol/kg and 1.10 mmol/kg. Mice were weighed and blood was collected by removing the eyeball at 24 h after the last administration. Sacrificed the mice, removed the lung and counted the number of melanoma nodules in lungs of mice under an anatomical lens. Serum obtained after centrifugation at 3000 rpm for 20 min (3K30 refrigerated centrifuge, Sigma, USA) was conserved at −20° C. Levels of TNF-α and IL-1β in serum were measured by ELISA method, which were performed in accordance with the instructions of the kits.
# Data were expressed as mean±SD and statistical analysis was performed by SPSS Statistics 17.0 using a one-way analysis of variance (ANOVA) followed by unpaired t-test. A value of P<0.05 was considered statistically significant. The inhibition ratio (IR %) of lung metastasis was calculated as follows: IR %=(Nc−Nt)/Nc×100%, where Nc is the average number of nodules in lung tissues of vehicle, and Nt is that of mice treated with drugs.
# TNF-α = assay type: in vivo, mouse; conditions: mouse, in vivo, 30 mg/kg
# IL-1β = assay type: in vivo, mouse; conditions: mouse, in vivo, 30 mg/kg
# [2] = assay type: in vivo, mouse; conditions: C57BL/6 mice, before vs 24 d after administration, Cyc 30 mg/kg ig
# Procedure: as §1
# [3] = tested on: A549 human lung adenocarcinoma; assay: Colony formation assay, A549; assay type: cell-based
# Procedure: (§2) 1) Cell lines: Cell lines of SGC-7901 human gastric cancer, A549 human lung adenocarcinoma and Hela human cervical carcinoma were purchased from the Type Culture Collection of the Chinese Academy of Sciences, Shanghai, China.
# (§3) 3) Method: Colony formation assay was used. The cells were trypsinized to generate a single-cell suspension and seeded in a 6-well plate at a density of 100 cells/well, then drug-containing medium was added to the well to make the final concentration of compound to 0, 1.25, 2.50, 5.00, 7.50, 10.00 μmol/L, respectively. The experiments were performed in duplicate, and the cells were cultured at 37 in a humidified atmosphere with 5% CO2. Terminate cell culture when the clones can be seen in the culture plate, then remove the culture medium, and wash twice with PBS, fix the cells with methanol (5 ml/well) for 15 min and stain the cells with hematoxylin-eosin stain. The number of clones which comprised more than 50 cells was counted under a TS100-F-PH microscope (Nikon Company, Japan). Calculate relative colony formation ratio (%) and the IC50 values. Relative colony formation ratio (%)=(colony number of drug-administration well/colony number of control well)×100%.
# [4] = tested on: Hela human cervical carcinoma; assay: Colony formation assay, Hela; assay type: cell-based; conditions: Hela; read-out: Inhibition against tumor cell colony formation IC50
# Procedure: as §2, §3
# [5] = tested on: SGC-7901 human gastric cancer; assay: Colony formation assay, SGC-7901; assay type: cell-based
# Procedure: as §2, §3
# [6] = tested on: 5637 human urinary bladder cancer cells; assay: Wound healing (two-dimensional migration) assay, 5637; assay type: cell-based; conditions: 5637, 10.00 μmol/l, 24 h (FIG. 1C)
# Procedure: (§4) 1) Cell lines: Cell lines of 5637 human bladder carcinoma, Eca-109 human esophageal carcinoma, HT29 human colon cancer, SGC-7901 human gastric cancer, A549 human lung adenocarcinoma and PC-3 human prostate carcinoma were purchased from the Type Culture Collection of the Chinese Academy of Sciences, Shanghai, China.
# (§5) 3) Methods: The cells were trypsinized to generate a single-cell suspension and seeded in 96-well plates (200 μl/well), and incubated with medium containing 10% fetal bovine serum at 37 in a humidified atmosphere with 5% CO2. Following a 24 h incubation, the cells were starved for an additional 12 h in low-serum media (1% FBS). The cultures of Eca-109, HT29, 5637, SGC-7901, A549 and PC-3 were then scratched away with a 200-μl plastic pipette tip and rinsed twice with PBS to remove wound-derived loose and dislodged cells. The cells were cultured in replaced medium without or with compounds at final concentrations of 0, 2.50, 5.00 and 10.00 μmol/L, respectively. At least seven randomly selected views along the scraped line in each well were photographed immediately and 24 h and 36 h after incubation using a digital camera at 50× magnification. The average scraped area in each well under each treatment condition was measured, and the percentage of inhibition against cell migration was calculated. % of inhibition=1−(A0−At)/(A′0−A′t)×100%, where, A0 and At are the areas of wound with compound treatment measured immediately and 24 or 36 h post-injury, respectively; A′0 and A′t are the areas of wound without compound treatment measured immediately and 24 or 36 h post-injury, respectively.
# [7] = tested on: PC-3 human prostate carcinoma cells; assay: Wound healing (two-dimensional migration) assay, PC-3; assay type: cell-based; conditions: PC-3, 10.00 μmol/l, 36 h (FIG. 1F)
# Procedure: as §4
# as §5, with “The cells were cultured in replaced medium without or with compounds at final concentrations of 0, 2.50, 5.00 and 10.00 μmol/L, respectively. At least seven randomly selected views along the scraped line in each well were photographed immediately and 24 h and 36 h after incubation using a digital camera at 50× magnification.” left out
# [8] = read-out: Inhibition against tumor cell colony formation IC50
smiles,measurement,setting,value
"O=P1(N(CCCl)CCCl)NCCCO1 (centres unmarked) [Cyc, Cyclophosphamide, reference compound]",IR (%) of tumor growth,Murine hepatoma H22,29.34* %
same,Carmine contents,Murine hepatoma H22; mean ± s,4.24 ± 2.29
same,"VI (vascular index, mg carmine red per g tumor tissue)",Murine hepatoma H22; mean ± s,4.87 ± 1.13 mg/g
same,IR (%) of S180 sarcoma growth,S180 murine sarcoma; 30.00 mg/kg ig once a day 9 d,53.61% and 53.61 ± 12.43 %
same,Average invasion and metastasis grade,"S180 murine sarcoma; S180, grades 0-4, 30.00 mg/kg",3.67
same,Mouse Number Grade 0,"S180 murine sarcoma; S180 invasion, Grade 0: no invasion, 30.00 mg/kg",0
same,Mouse Number Grade 1,"S180 murine sarcoma; S180 invasion, Grade 1: invasion to right forelimb, 30.00 mg/kg",0
same,Mouse Number Grade 2,"S180 murine sarcoma; S180 invasion, Grade 2: right forelimb and the left side of body, 30.00 mg/kg",0
same,Mouse Number Grade 3,"S180 murine sarcoma; S180 invasion, Grade 3: also the ribs and muscles in chest, 30.00 mg/kg",4
same,Mouse Number Grade 4,"S180 murine sarcoma; S180 invasion, Grade 4: invasion into chest or abdominal cavity, 30.00 mg/kg",8
same,IR (%) of lung metastasis,[1]; 30 mg/kg,47.92%
same,Lung index,"[1]; mean ± s, n = 5",6.66 ± 0.37 mg/g
same,Nodule number (melanoma nodules in lungs),"[1]; mean ± s, n = 5",43.76 ± 11.70
same,TNF-α in serum,TNF-α,8.45 ± 9.54
same,IL-1β in serum,IL-1β,41.58 ± 4.39 pg/mL
same,Average increase in body weight,[2],0.7 g
C=C1CCC2C(C)(CO)C(O)CCC2(C)C1C=CC1=CC(=Cc2ccccc2)OC1=O (centres unmarked) [Compound 4],Inhibition of colony formation compared with andrographolide,[3],remarkably stronger than that of andrographolide
same,IC50,[3]; [8],4.51 µM
same,IC50,[4],4.84 µM
same,Inhibition of colony formation compared with andrographolide,[5],remarkably stronger than that of andrographolide
same,IC50,[5]; [8],5.07 µM
same,Inhibitory effect on two-dimensional migration,[6],much stronger than that of other tumor cells
same,Inhibitory effect on two-dimensional migration,[7],much stronger than that of other tumor cells
